Data from patent publication US20250234824A1, “MARKERS ASSOCIATED WITH S[…]” (Syngenta Crop Protection AG, priority 2022, published 2025).

System: maize haploids
Test: Colchicine doubling treatment of BC3 haploids, pollen and kernel phenotypes in the field
Type: in vivo
Conditions: for Average Number of Days of Pollen per Plant / Average Number of Kernels per Plant / Percent of Plants with Ears >5 kernels: colchicine-treated haploids
Description: Genotyping was used to identify heterozygotes at SCD-QTL1, and those materials were then crossed by a haploid inducer, embryos isolated from the immature ears, and haploids regenerated for transplant into the field. Immediately after isolation, embryos from each of the 17 BC3 populations were split into 2 treatment groups. […] All lines were planted across three replications of the trial over the course of approximately 6 months, and the data was pooled for analysis.

[1] = BC3 recurrent parent Line 1, SCD Allele
[2] = BC3 recurrent parent Line 1, Unfavorable Allele
[3] = BC3 recurrent parent Line 2, SCD Allele
[4] = BC3 recurrent parent Line 2, Unfavorable Allele
[5] = BC3 recurrent parent Line 3, SCD Allele
[6] = BC3 recurrent parent Line 3, Unfavorable Allele
[7] = BC3 recurrent parent Line 4, SCD Allele
[8] = BC3 recurrent parent Line 4, Unfavorable Allele
[9] = BC3 recurrent parent Line 5, SCD Allele
[10] = BC3 recurrent parent Line 5, Unfavorable Allele
[11] = BC3 recurrent parent Line 6, SCD Allele
[12] = BC3 recurrent parent Line 6, Unfavorable Allele
[13] = BC3 recurrent parent Line 7, SCD Allele
[14] = BC3 recurrent parent Line 7, Unfavorable Allele
[15] = BC3 recurrent parent Line 8, SCD Allele
[16] = BC3 recurrent parent Line 8, Unfavorable Allele
[17] = BC3 recurrent parent Line 9, SCD Allele
[18] = BC3 recurrent parent Line 9, Unfavorable Allele
[19] = BC3 recurrent parent Line 10, SCD Allele
[20] = BC3 recurrent parent Line 10, Unfavorable Allele
[21] = BC3 recurrent parent Line 11, SCD Allele
[22] = BC3 recurrent parent Line 11, Unfavorable Allele
[23] = BC3 recurrent parent Line 12, SCD Allele
[24] = BC3 recurrent parent Line 12, Unfavorable Allele
[25] = BC3 recurrent parent Line 13, SCD Allele
[26] = BC3 recurrent parent Line 13, Unfavorable Allele
[27] = BC3 recurrent parent Line 14, SCD Allele
[28] = BC3 recurrent parent Line 14, Unfavorable Allele
[29] = BC3 recurrent parent Line 15, SCD Allele
[30] = BC3 recurrent parent Line 15, Unfavorable Allele
[31] = BC3 recurrent parent Line 16, SCD Allele
[32] = BC3 recurrent parent Line 16, Unfavorable Allele
[33] = BC3 recurrent parent Line 17, SCD Allele
[34] = BC3 recurrent parent Line 17, Unfavorable Allele

How did the “Average Number of Days of Pollen per Plant” value [1] turn out when `COc1cc2c(c(OC)c1OC)-c1ccc(OC)c(=O)cc1[C@@H](NC(C)=O)CC2` [Colchicine, colchicine] was run?
Its value is 3.1 days.

And the “Average Number of Kernels per Plant” value [1]?
The value was 23.8 kernels.

And the “Percent of Plants with Ears >5 kernels” value [1]?
Its value is 53.9%.

What about the “Average Number of Days of Pollen per Plant” value [2] of the same molecule?
The value was 2.4 days.

And the “Average Number of Kernels per Plant” value [2]?
The value was 13.5 kernels.

What about the “Percent of Plants with Ears >5 kernels” value [2] of the same molecule?
Its value is 26.6%.

What about the “Average Number of Days of Pollen per Plant” value [3] of the same molecule?
Its value is 1.72 days.

And the “Average Number of Kernels per Plant” value [3]?
The value was 5 kernels.

What about the “Percent of Plants with Ears >5 kernels” value [3] of the same molecule?
The value was 12.0%.

And the “Average Number of Days of Pollen per Plant” value [4]?
Its value is 2.35 days.

And the “Average Number of Kernels per Plant” value [4]?
The value was 9.62 kernels.

And the “Percent of Plants with Ears >5 kernels” value [4]?
The value was 13.5%.

And the “Average Number of Days of Pollen per Plant” value [5]?
Its value is 1.76 days.

What about the “Average Number of Kernels per Plant” value [5] of the same molecule?
Its value is 7.62 kernels.

What about the “Percent of Plants with Ears >5 kernels” value [5] of the same molecule?
Its value is 6.9%.

And the “Average Number of Days of Pollen per Plant” value [6]?
The value was 1.45 days.

What about the “Average Number of Kernels per Plant” value [6] of the same molecule?
Its value is 9.03 kernels.

What about the “Percent of Plants with Ears >5 kernels” value [6] of the same molecule?
The value was 9.1%.

And the “Average Number of Days of Pollen per Plant” value [7]?
The value was 0.04 days.

And the “Average Number of Kernels per Plant” value [7]?
The value was 0 kernels.

What about the “Percent of Plants with Ears >5 kernels” value [7] of the same molecule?
Its value is 0.0%.

And the “Average Number of Days of Pollen per Plant” value [8]?
Its value is 0.57 days.

And the “Average Number of Kernels per Plant” value [8]?
Its value is 7.1 kernels.

And the “Percent of Plants with Ears >5 kernels” value [8]?
The value was 13.2%.

And the “Average Number of Days of Pollen per Plant” value [9]?
The value was 2.34 days.

What about the “Average Number of Kernels per Plant” value [9] of the same molecule?
Its value is 2.31 kernels.

What about the “Percent of Plants with Ears >5 kernels” value [9] of the same molecule?
Its value is 3.1%.

What about the “Average Number of Days of Pollen per Plant” value [10] of the same molecule?
Its value is 2.19 days.

What about the “Average Number of Kernels per Plant” value [10] of the same molecule?
Its value is 4.88 kernels.

And the “Percent of Plants with Ears >5 kernels” value [10]?
The value was 7.6%.

What about the “Average Number of Days of Pollen per Plant” value [11] of the same molecule?
The value was 1.675 days.

And the “Average Number of Kernels per Plant” value [11]?
The value was 11.23 kernels.

And the “Percent of Plants with Ears >5 kernels” value [11]?
The value was 25.0%.

And the “Average Number of Days of Pollen per Plant” value [12]?
Its value is 2.01 days.

What about the “Average Number of Kernels per Plant” value [12] of the same molecule?
Its value is 19.09 kernels.

And the “Percent of Plants with Ears >5 kernels” value [12]?
Its value is 27.2%.

And the “Average Number of Days of Pollen per Plant” value [13]?
The value was 1.58 days.

And the “Average Number of Kernels per Plant” value [13]?
The value was 53.5 kernels.

What about the “Percent of Plants with Ears >5 kernels” value [13] of the same molecule?
The value was 37.9%.

And the “Average Number of Days of Pollen per Plant” value [14]?
Its value is 1.298 days.

What about the “Average Number of Kernels per Plant” value [14] of the same molecule?
The value was 54.18 kernels.

What about the “Percent of Plants with Ears >5 kernels” value [14] of the same molecule?
The value was 29.9%.

And the “Average Number of Days of Pollen per Plant” value [15]?
The value was 1.72 days.

What about the “Average Number of Kernels per Plant” value [15] of the same molecule?
Its value is 37.34 kernels.

And the “Percent of Plants with Ears >5 kernels” value [15]?
The value was 31.1%.

What about the “Average Number of Days of Pollen per Plant” value [16] of the same molecule?
The value was 1.466 days.

And the “Average Number of Kernels per Plant” value [16]?
The value was 26.17 kernels.

And the “Average Number of Days of Pollen per Plant” value [17]?
Its value is 2.58 days.

And the “Average Number of Kernels per Plant” value [17]?
The value was 27.9 kernels.

What about the “Average Number of Days of Pollen per Plant” value [18] of the same molecule?
Its value is 2.51 days.

What about the “Average Number of Kernels per Plant” value [18] of the same molecule?
The value was 24.067 kernels.

What about the “Percent of Plants with Ears >5 kernels” value [18] of the same molecule?
Its value is 29.3%.

What about the “Average Number of Days of Pollen per Plant” value [19] of the same molecule?
The value was 1.12 days.

What about the “Average Number of Kernels per Plant” value [19] of the same molecule?
The value was 23.17 kernels.

And the “Average Number of Days of Pollen per Plant” value [20]?
Its value is 1.005 days.

And the “Average Number of Kernels per Plant” value [20]?
Its value is 13.75 kernels.

What about the “Percent of Plants with Ears >5 kernels” value [20] of the same molecule?
Its value is 26.4%.

And the “Average Number of Days of Pollen per Plant” value [21]?
Its value is 1.09 days.

And the “Average Number of Kernels per Plant” value [21]?
Its value is 4.97 kernels.

And the “Percent of Plants with Ears >5 kernels” value [21]?
The value was 8.7%.

And the “Average Number of Days of Pollen per Plant” value [22]?
The value was 1.2 days.

What about the “Average Number of Kernels per Plant” value [22] of the same molecule?
The value was 18.11 kernels.

And the “Percent of Plants with Ears >5 kernels” value [22]?
Its value is 17.5%.

And the “Average Number of Days of Pollen per Plant” value [23]?
Its value is 1.25 days.

What about the “Average Number of Kernels per Plant” value [23] of the same molecule?
Its value is 19.56 kernels.

What about the “Percent of Plants with Ears >5 kernels” value [23] of the same molecule?
Its value is 28.5%.

What about the “Average Number of Days of Pollen per Plant” value [24] of the same molecule?
The value was 0.96 days.

What about the “Average Number of Kernels per Plant” value [24] of the same molecule?
The value was 22.12 kernels.

What about the “Percent of Plants with Ears >5 kernels” value [24] of the same molecule?
Its value is 21.3%.

What about the “Average Number of Days of Pollen per Plant” value [25] of the same molecule?
The value was 1.45 days.

What about the “Average Number of Kernels per Plant” value [25] of the same molecule?
Its value is 32.5 kernels.

What about the “Percent of Plants with Ears >5 kernels” value [25] of the same molecule?
Its value is 25.8%.

And the “Average Number of Days of Pollen per Plant” value [26]?
The value was 1.33 days.

What about the “Average Number of Kernels per Plant” value [26] of the same molecule?
Its value is 24.5 kernels.

What about the “Percent of Plants with Ears >5 kernels” value [26] of the same molecule?
Its value is 24.7%.

What about the “Average Number of Days of Pollen per Plant” value [27] of the same molecule?
Its value is 1.28 days.

And the “Average Number of Kernels per Plant” value [27]?
Its value is 31 kernels.

And the “Percent of Plants with Ears >5 kernels” value [27]?
Its value is 29.9%.

And the “Average Number of Days of Pollen per Plant” value [28]?
The value was 1.1 days.

What about the “Average Number of Kernels per Plant” value [28] of the same molecule?
Its value is 40.57 kernels.

What about the “Percent of Plants with Ears >5 kernels” value [28] of the same molecule?
The value was 26.2%.

What about the “Average Number of Days of Pollen per Plant” value [29] of the same molecule?
The value was 2.66 days.

What about the “Average Number of Kernels per Plant” value [29] of the same molecule?
The value was 45.47 kernels.

What about the “Percent of Plants with Ears >5 kernels” value [29] of the same molecule?
The value was 64.9%.

And the “Average Number of Days of Pollen per Plant” value [30]?
The value was 2.81 days.

What about the “Average Number of Kernels per Plant” value [30] of the same molecule?
Its value is 72.9 kernels.

And the “Percent of Plants with Ears >5 kernels” value [30]?
The value was 72.2%.

And the “Average Number of Days of Pollen per Plant” value [31]?
The value was 1.65 days.

And the “Average Number of Kernels per Plant” value [31]?
Its value is 31.56 kernels.

And the “Average Number of Days of Pollen per Plant” value [32]?
Its value is 1.67 days.

And the “Average Number of Kernels per Plant” value [32]?
Its value is 28.03 kernels.

What about the “Percent of Plants with Ears >5 kernels” value [32] of the same molecule?
Its value is 37.6%.

What about the “Average Number of Days of Pollen per Plant” value [33] of the same molecule?
Its value is 2.63 days.

And the “Average Number of Kernels per Plant” value [33]?
The value was 52.86 kernels.

What about the “Percent of Plants with Ears >5 kernels” value [33] of the same molecule?
The value was 49.1%.

And the “Average Number of Days of Pollen per Plant” value [34]?
Its value is 2.51 days.

And the “Average Number of Kernels per Plant” value [34]?
Its value is 58.48 kernels.

And the “Percent of Plants with Ears >5 kernels” value [34]?
The value was 50.4%.

What about the “pollen and kernel production” value (colchicine-treated groups compared with SCD-QTL1 alone, 17 BC3 populations pooled) of the same molecule?
Its value is “performed overall better in both pollen and kernel production than the SCD-QTL1 alone”.
